Laboratory results as given in patent US20150335678A1, “METHOD OF ACTIVATING STEM CELLS IN AN ANIMAL AND THE USE OF CHLORINE DIOXIDE FOR PREPARING MEDICINES FOR ACTIVATING STEM CELLS IN AN ANIMAL” (priority 2012, published 2015).

Assays:
[1] = system: BrdU-positive (migrating) cells; assay: BrdU-positive (migrating) cells in the SVZ region; assay type: in vivo, Sprague-Dawley rats; conditions: for number of BrdU-positive cells in the SVZ region, migration (mean±SD): BrdU twice within 24 hours after model established
Protocol: Male Sprague-Dawley rats with the age of 12 weeks and weight of 250^˜280 g were used in the experiment after acclimating for a week.
A middle cerebral artery occlusion model was first established in compliance with the method of Longa E Z et al. (Longa E Z, et al. Reversible middle cerebral artery occlusion without craniectomy in rats. Stroke 20:84-91, 1989). More specifically, 0.36 g/kg of 10% chloral hydrate was administered intraperitoneally to rats which had been fasted for 12 hours (although given free access to water) to anesthetize the rats. Next, a midline incision was made in the neck to expose the right common carotid artery. Then, the internal carotid artery and external carotid artery were separated, the posterior carotid artery, which is a branch of the external carotid artery, and the thyroidea arteria were coagulated and severed, the external carotid artery was ligated at the branch of the lingual artery and maxillary artery, a small puncture was formed in the external carotid artery, 4-0 Nylon suture was passed through the common carotid artery from the puncture, and gradually inserted into the internal carotid artery until there was resistance. The length of the Nylon suture was about 18^˜20 mm from the branch of the common carotid artery. As a result of occluding the middle cerebral artery with Nylon suture, an ischemic state was applied for 2 hours to create a middle cerebral artery occlusion model.
A cerebral ischemia/reperfusion injury model was established by removing the Nylon suture from the middle cerebral artery of the occlusion model and following reperfusion of blood.
The first solution was a mixed solution made of sodium chlorite with the concentration of 7.47% and sodium chloride with the concentration of 1.59% with deionized water; the second solution was made of citric acid with the concentration of 16.7% with deionized water. Same volume of solutions were taken out from different vessels with different volumes and mixed up. Allow the solution to mix for 3-5 minutes and dilute it five times with normal saline, and then filter it with 0.22 μm filter membrane of double-deck. The solution was immediately put into injector. The solution was prepared once being used.
Treatment group (120 rats): A cerebral ischemia/reperfusion injury model was established for the rats already. To administer chlorine dioxide solution everytime that prepared from procedure (3) through carotid artery after the second day the model has established, once a day for total ten days.
Thirty Rats in each group were intraperitoneally injected twice with 50 mg/kg of BrdU within 24 hours after model established. The rats were autopsied on day 7, 14 and 21 after model established for preparation of frozen brain sections. The presence of BrdU-positive cells in the SVZ region was analyzed by immunochemical stain using mouse anti-rat BrdU monoclonal antibody.
BRt(%)=(Bt−St)/(Mt−St)×100

cartilage of hip joint = assay: Hip arthritis patients: thickness of cartilage of hip joint by ultrasonic scanning; assay type: in vivo, human; conditions: listed as activating agent of stem cells comprising a chlorine dioxide; for Medical cartilage thickness mean(±SD): before administration 0.51 (±0.07); for Lateral cartilage thickness mean(±SD): before administration 0.61 (±0.09)
Protocol: To smear the solution over the skin of hip arthritis with swab immediately, once a day for consecutive 20 days. Then stop the administration for three months, and then began continuous treatment for 20 days. Clean and disinfect the regions before treatment, conduct local anesthetic 30 minutes before the operation.
The subjects who joined in the treatment group as volunteers consisted of 11 patients with hip arthritis (5 male, aged from 40 to 70 years old and 6 female, aged from 40 to 65 years old.). Case histories were recorded at the third and the sixth month by collecting personal and data of human body (height, body weight, BMI, blood pressure and heart rate.) Then evaluate the following parameters:
Thickness of cartilage of hip joint: measured by ultrasonic scanning at the core, the center and the lateral.

Helicobacter pylori = assay: hp-positive gastric ulcer patients: HP negative conversing, rapid urease test; assay type: in vivo, human; conditions: 30 patients per group
Protocol: The subjects consisted of 90 gastric ulcer patients (50 male and 40 female) of hp-positive aged from 33 to 75 years old (average age: 41 years old). The subjects were randomly assigned to treatment group and control group with 30 patients in treatment group and 30 in control group 1 and 30 in control group 2 respectively.
Allow the solution to mix for 3-5 minutes. The capsule that containing activating agent of stem cells was made by injecting the mixed solution into the soft capsule of number 0.
The capsule that containing activating agent of stem cells was administered to the patients in treatment group three times a day and a pill each time; 30 minutes before meals, patients in control group 1 took orally 15 mg colloidal bismuth and 100 mg pectin tinidazole for three times a day. And 20 mg Omeprazole two times a day; patients in control group 2 took orally […] amoxicillin and 500 mg clindamycin three times a day and 20 mg esomeprazole twice a day before meals. Both groups were administered for a consecutive week. To observe the improvement of the clinical symptoms of the three cases two weeks after administration, such as stomachache, nausea and sour regurgitation. […]
Criteria for measuring the effects: the changes of conditions before and after treatment and the time the symptoms disappear were recorded precisely. […]

rat = conditions: ClO2 276.5 mg/L, cited from earlier work

## [O][Cl+][O-] [chlorine dioxide solution, chlorine dioxide]
[1]; Day 7
  BRt: BrdU-positive (migrating) cells in treatment group relative to model group = 100%: 121.0%
[1]; Day 7, model group 136.56 ± 15.63, sham 2.85 ± 1.05, diluted solution via carotid artery once a day, ten days
  number of BrdU-positive cells in the SVZ region, migration (mean±SD): 164.61 ± 16.3 No. cells/mm2
[1]; Day 14
  BRt: BrdU-positive (migrating) cells in treatment group relative to model group = 100%: 144.7%
[1]; Day 14, model group 78.6 ± 8.5, sham 3.39 ± 1.35
  number of BrdU-positive cells in the SVZ region, migration (mean±SD): 112.2 ± 10.6 No. cells/mm2
[1]; Day 21
  BRt: BrdU-positive (migrating) cells in treatment group relative to model group = 100%: 227.1%
[1]; Day 21, model group 34.9 ± 5.48, sham 3.11 ± 1.05
  number of BrdU-positive cells in the SVZ region, migration (mean±SD): 75.3 ± 8.39 No. cells/mm2
[1]; treatment group, in model group only on the surface of the SVZ region
  distribution of BrdU-positive cells in SVZ region: widely distributed from the surface to interior of the SVZ region
Cartilage of hip joint; sixth month
  Medical cartilage thickness mean(±SD): 0.66 (±0.16) mm
  Lateral cartilage thickness mean(±SD): 0.73 (±0.11) mm
  Central cartilage thickness, percentage increase: 12.7%
  Lateral cartilage thickness, percentage increase: 8.9%
  Medical cartilage thickness, percentage increase: 11.9%
Cartilage of hip joint; sixth month, before administration 0.73 (±0.09)
  Central cartilage thickness mean (±SD): 0.89 (±0.09) mm
Cartilage of hip joint; third month, ultrasound, 11 hip arthritis patients, topical with DMSO
  Medical cartilage thickness mean(±SD): 0.59 (±0.08) mm
Cartilage of hip joint; third month
  Lateral cartilage thickness mean(±SD): 0.67 (±0.10) mm
  Central cartilage thickness, percentage increase: 8.2%
  Lateral cartilage thickness, percentage increase: 9.8%
  Medical cartilage thickness, percentage increase: 15.6%
Helicobacter pylori; rapid urease test after 30 days
  HP negative conversing (%): 96.6%
Helicobacter pylori; rapid urease test of gastric mucosa after 30 days
  HP negative conversing (No.): 29
rat; NaClO2 200 mg/L, NaClO3
  accumulative toxicity classification of aqueous solution: non-obvious accumulative toxic
rat; NaClO2 and NaClO3 200 mg/L, ClO2 mixed solution total concentration 553 mg/L
  toxicity classification of aqueous solution: actually non-toxic
